{
  "source": "patent US20240059755A1",
  "about": "“NANOLIPOPROTEIN-POLYPEPTIDE CONJUGATES AND COMPOSITIONS, SYSTEMS, AND METHODS USING SAME” (Genentech, Inc., priority 2020, published 2024)",
  "system": "trypsin",
  "assay": "Trypsin enzymatic assay (L-Arg-AMC substrate)",
  "assay_type": "biochemical",
  "procedure": "Briefly, the peptide NLP conjugates were incubated at the indicated concentration with trypsin (2 nM) for 30 min at room temperature. The substrate L-Arginine-7-amido-4-methylcoumarin (L-Arg-AMC) (75 μM) was added to the mixture and the proteolytic activity was measured immediately. Samples were run in triplicate and repeated twice. The data were analyzed using KaleidaGraph software.",
  "data": [
    {"smiles": "CCCCCCCCCCCCCCCC(=O)NCCCC[C@H](N)C(=O)NCC(=O)N[C@@H](CO)C(=O)NCC(=O)N[C@@H](CO)C(=O)NCC(=O)N[C@H]1CSSC[C@@H]2NC(=O)CNC(=O)[C@H](C)NC(=O)[C@H](CC(C)C)NC(=O)[C@@H]3CSSC[C@@H](C(=O)NCC(=O)O)NC(=O)[C@H](Cc4ccccc4)NC(=O)CNC(=O)[C@H](CC(N)=O)NC(=O)[C@@H]4CCCN4C(=O)CNC(=O)[C@H](CSSC[C@H](NC(=O)[C@H](CCCNC(=N)N)NC(=O)[C@H](CCSC)NC(=O)[C@H](CC(C)C)NC(=O)[C@H]([C@@H](C)CC)NC(=O)[C@H](CCCNC(=N)N)NC(=O)[C@@H]4CCCN4C1=O)C(=O)N[C@@H](CCCCN)C(=O)N[C@@H](CCC(N)=O)C(=O)N[C@@H](CC(=O)O)C(=O)N[C@@H](CO)C(=O)N[C@@H](CC(=O)O)C(=O)N3)NC(=O)[C@H](C(C)C)NC2=O", "note": "[CKP-C16]", "values": [
      {"measurement": "trypsin inhibitory activity", "value": "inhibitory potency"}
    ]}
  ]
}
